Reference: patent US20070148232A1, “Stabilized pharmaceutical solid compositions of low-solubility drugs and poloxamers, and stabilizing polymers” (Pfizer Inc., priority 2003, published 2007)
Converted amounts (≈) assume the structure as drawn. Values belong to the molecule of their own block, whether it stands above or below them.

Experiments:
Format in all cases: physicochemical
[1] = solubility in PBS, pH 6.5; conditions: pH 6.5, aqueous buffer
[2] = glass transition temperature (Tg) by DSC; conditions: at less than 5% RH
Excerpt: A solid composition was formed by a spray-drying process as follows. […] A spray solution was formed containing 2.5 wt % Viracept, 1.5 wt % Pluronic F127, 1.0 wt % HPMC, 85.5 wt % methanol, and 9.5 wt % water. The solution was mixed until the polymers and drug had all dissolved. The spray solution was pumped using a high-pressure pump to a spray drier (a Niro type XP Portable Spray-Dryer with a Liquid-Feed Process Vessel (“PSD-1”)), equipped with a pressure nozzle (model WG-126, from Delavan LTV). The PSD-1 was equipped with a 5-foot 9-inch chamber extension. The chamber extension was added to the spray dryer to increase the vertical length of the dryer. The added length increased the residence time within the dryer, which allowed the product to dry before reaching the angled section of the spray dryer. The spray drier was also equipped with a 316 SS circular diffuser plate with 1/16-inch drilled holes, having a 1% open area. […] The Tg of the resulting composition was determined by DSC to be about 107° C. at less than 5% RH.
Solid compositions containing Drug 1 were prepared using various amounts of poloxamer 407 and the stabilizing polymers hydroxypropyl methyl cellulose and hydroxypropyl methyl cellulose acetate succinate as described below. […] The Tg of each composition, measured at a relative humidity of less than 10%, is also included in Table 6.

[3] = in vitro dissolution test of Drug 2 compositions in PBS; conditions: dose 1000 μg/mL; for AUC90 / MDC90: initial ninety minutes; for AUC / Drug 2 Concentration: PBS, 37° C.
Description: The solid composition of Example 1 was evaluated in an in vitro dissolution test as follows. For each test, the composition was added to microcentrifuge tubes in duplicate. A 4.21 mg sample of the composition was added to each tube for a total concentration of 1000 μg/mL drug, if all of the drug had dissolved. The tubes were placed in a 37° C. temperature-controlled chamber, and 1.8 mL PBS containing 0.5 wt % sodium taurocholic acid and 1-palmitoyl-2-oleyl-sn-glycero-3-phosphocholine (NaTC/POPC, with a […] weight ratio) at pH 6.5 and 290mOsm/kg (model fasted duodenal solution, “MFDS”) was added to each respective tube. The samples were quickly mixed using a vortex mixer for about 60 seconds. The samples were centrifuged at 13,000 G at 37° C. for 1 minute. The resulting supernatant solution was then sampled and diluted 1:6 (by volume) with methanol and then analyzed by high-performance liquid chromatography (HPLC). The contents of each respective tube were mixed on the vortex mixer and allowed to stand undisturbed at 37° C. until the next sample was taken. Samples were collected at 4, 10, 20, 40, 90, and 1200 minutes.
A sufficient amount of the composition was added to each tube (in duplicate) for a total concentration of 1000 μg/mL drug, if all of the drug had dissolved. The tubes were placed in a 37° C. temperature-controlled chamber, and 1.8 mL PBS was added.
Control 5 (C5) consisted of crystalline Drug 2 alone, tested in PBS, and a sufficient amount of material was added so that the concentration of drug would have been 1000 μg/mL, if all the drug had dissolved.
A sufficient amount of the composition was added to each tube (in duplicate) for a total concentration of 1000 μg/mL drug, if all of the drug has dissolved. The tubes were placed in a 37° C. temperature-controlled chamber, and 1.8 mL PBS was added.
As a control (C6), a composition consisting of 25 wt % Drug 2 and 75 wt % HPMCAS-HF was formed using the rotoevaporation process described for Example 6. The composition was tested in vitro, and a sufficient amount of material was added to PBS so that the concentration of drug would have been 1000 μg/mL, if all of the drug had dissolved.

[4] = in vitro dissolution test of Drug 1 compositions in PBS; conditions: dose 1000 μg/mL; for AUC / Drug 1 Concentration: PBS, 37° C.
Description: The solid composition of Example 1 was evaluated in an in vitro dissolution test as follows. For each test, the composition was added to microcentrifuge tubes in duplicate. […] The samples were quickly mixed using a vortex mixer for about 60 seconds. The samples were centrifuged at 13,000 G at 37° C. for 1 minute. The resulting supernatant solution was then sampled and diluted 1:6 (by volume) with methanol and then analyzed by high-performance liquid chromatography (HPLC). The contents of each respective tube were mixed on the vortex mixer and allowed to stand undisturbed at 37° C. until the next sample was taken. Samples were collected at 4, 10, 20, 40, 90, and 1200 minutes. […] The tubes were placed in a 37° C. temperature-controlled chamber, and 1.8 mL PBS was added. As a control (C4), crystalline Drug 1 alone was tested in PBS and a sufficient amount of material was added so that the concentration of drug would have been 1000 μg/mL, if all of the drug had dissolved.

[5] = in vitro dissolution test of Drug 1 compositions in MFDS; conditions: dose 1000 μg/mL; for AUC / Drug 1 Concentration: MFDS, 37° C.
Description: The solid composition of Example 1 was evaluated in an in vitro dissolution test as follows. For each test, the composition was added to microcentrifuge tubes in duplicate. […] The samples were quickly mixed using a vortex mixer for about 60 seconds. The samples were centrifuged at 13,000 G at 37° C. for 1 minute. The resulting supernatant solution was then sampled and diluted 1:6 (by volume) with methanol and then analyzed by high-performance liquid chromatography (HPLC). The contents of each respective tube were mixed on the vortex mixer and allowed to stand undisturbed at 37° C. until the next sample was taken. Samples were collected at 4, 10, 20, 40, 90, and 1200 minutes. As a control (C1), crystalline Drug 1 alone was added 1.8 mL of MFDS, at a sufficient amount so that the concentration of drug would have been 1000 μg/mL, if all of the drug had dissolved. […] Control C2 consisted of 50 wt % Drug 1 and 50 wt % HPMC. The composition was formed by first forming a spray solution consisting of […] Drug 1 and 250 mg HPMC in 58.7 gm of a 50.7:8 w/w mixture of acetone:water. This solution was pumped into a “mini” spray-drying apparatus via a Cole Parmer 74900 series rate-controlling syringe pump at a rate of 70 ml/hr. The spray solution was atomized through a Spraying Systems Co. two-fluid nozzle, Model No. SU1A, using a heated stream of nitrogen at a flow rate of 1 SCFM. The spray solution was sprayed into an 11-cm diameter stainless steel chamber. The heated gas entered the chamber at an inlet temperature of 110° C. and exited at ambient temperature. The resulting solid composition was collected on filter paper, dried under vacuum, and stored in a desiccator. This composition was tested in a dissolution test using the procedures described above except that a sufficient amount of the composition was added so that the concentration if all of the drug had dissolved would have been 3000 μg/mL. The stability of the solid composition of Example 1 was evaluated in an accelerated storage test. The composition was stored under elevated temperature and humidity conditions to increase the rate of physical changes occurring in the material in order to simulate a longer storage interval in a typical storage environment. A sample of the composition was stored for 3 weeks at 40° C./75% RH.

[6] = Drug 1, PBS, initial ninety minutes
[7] = Drug 1, MFDS, initial ninety minutes

solubility [1]: ~20 µg/mL (≈ 35.2 µM)
Tg [2]: 119 °C
AUC90 ([3]; Drug 2, PBS): <100 µg·min/mL
MDC90 ([3]; Drug 2, PBS): <1 µg/mL
AUC90 [4, 6]: 285 µg·min/mL
MDC90 [4, 6]: 6 µg/mL
AUC ([4]; 0 min): 0 µg·min/mL
Drug 1 Concentration ([4]; 0 min): 0 µg/mL
AUC ([4]; 4 min): 11 µg·min/mL
Drug 1 Concentration ([4]; 4 min): 5 µg/mL
AUC ([4]; 10 min): 46 µg·min/mL
Drug 1 Concentration ([4]; 10 min): 6 µg/mL
AUC ([4]; 20 min): 106 µg·min/mL
Drug 1 Concentration ([4]; 20 min): 6 µg/mL
AUC ([4]; 40 min): 180 µg·min/mL
Drug 1 Concentration ([4]; 40 min): 2 µg/mL
AUC ([4]; 90 min): 285 µg·min/mL
Drug 1 Concentration ([4]; 90 min): 2 µg/mL
AUC ([4]; 1200 min): 12,730 min*μg/mL
Drug 1 Concentration ([4]; 1200 min): 20 µg/mL
AUC90 [5, 7]: 9,500 min*μg/mL
MDC90 [5, 7]: 118 µg/mL
AUC ([5]; 0 min): 0 µg·min/mL
Drug 1 Concentration ([5]; 0 min): 0 µg/mL
AUC ([5]; 4 min): 160 µg·min/mL
Drug 1 Concentration ([5]; 4 min): 80 µg/mL
AUC ([5]; 10 min): 700 µg·min/mL
Drug 1 Concentration ([5]; 10 min): 98 µg/mL
AUC ([5]; 20 min): 1,700 min*μg/mL
Drug 1 Concentration ([5]; 20 min): 102 µg/mL
AUC ([5]; 40 min): 3,800 min*μg/mL
Drug 1 Concentration ([5]; 40 min): 108 µg/mL
AUC ([5]; 90 min): 9,500 min*μg/mL
Drug 1 Concentration ([5]; 90 min): 118 µg/mL
AUC ([5]; 1200 min): 247,000 min*μg/mL
Drug 1 Concentration ([5]; 1200 min): 310 µg/mL
SMILES: Cc1c(O)cccc1C(=O)N[C@@H](CSc1ccccc1)[C@H](O)CN1C[C@H]2CCCC[C@H]2C[C@H]1C(=O)NC(C)(C)C [Drug 1, N-(1,1-dimethylethyl)decahydro-2-[(2R,3R)-2-hydroxy-3[(3-hydroxy-2-methylbenzoyl)amino]-4-(phenylthio)butyl]-3-isoquinolinecarboxamide (3s, 4aS, 8aS)-monomethanesulfonate]

solubility [1]: < 1 µg/mL
Tg [2]: about 30 °C
C1200 ([3]; Drug 2, PBS, concentration of drug at 1200 minutes): <1 µg/mL
AUC90 ([3]; Drug 2, PBS): <100 µg·min/mL
MDC90 ([3]; Drug 2, PBS): <1 µg/mL
AUC ([3]; 0 min): <100 µg·min/mL
Drug 2 Concentration ([3]; 0 min): <1 µg/mL
AUC ([3]; 4 min): <100 µg·min/mL
Drug 2 Concentration ([3]; 4 min): <1 µg/mL
AUC ([3]; 10 min): <100 µg·min/mL
Drug 2 Concentration ([3]; 10 min): <1 µg/mL
AUC ([3]; 20 min): <100 µg·min/mL
Drug 2 Concentration ([3]; 20 min): <1 µg/mL
AUC ([3]; 40 min): <100 µg·min/mL
Drug 2 Concentration ([3]; 40 min): <1 µg/mL
AUC ([3]; 90 min): <100 µg·min/mL
Drug 2 Concentration ([3]; 90 min): <1 µg/mL
AUC ([3]; 1200 min): <100 µg·min/mL
Drug 2 Concentration ([3]; 1200 min): <1 µg/mL
SMILES: CCOC(=O)N1c2ccc(C(F)(F)F)cc2[C@@H](N(Cc2cc(C(F)(F)F)cc(C(F)(F)F)c2)C(=O)OC)C[C@H]1CC [Drug 2, [2R,4S] 4-[(3,5-bis-trifluoromethyl-benzyl)-methoxycarbonyl-amino]-2-ethyl-6-trifluoromethyl-3,4-dihydro-2H-quinoline-1-carboxylic acid ethyl ester]
